Reference: patent US8604225B2, “Method of producing hydroxymethyl-furfural” (Novozymes, A/S, priority 2010, dated 2013)

Key:
[1] = target: T1, immobilized glucose isomerase (Sweetzyme™) (Streptomyces murinus, UniProt P37031); experiment: Glucose isomerase performance with substrate containing HMF; format: biochemical, S. murinus; parameters: purchased Novozymes A/S; details: for Activity: Syrup with 0.1 w/w % HMF
Procedure: To the substrate was added hydroxymethylfurfural (HMF) to a final concentration of 0.1 w/w % HMF.

[2] = target: T1, immobilized glucose isomerase (Sweetzyme™); experiment: Effect of HMF on the initial activity of Sweetzyme™ (batch bottles); format: biochemical, S. murinus; parameters: purchased Novozymes A/S; details: for initial activity: 60° C.
Procedure: 2.5 gram immobilized glucose isomerase (Sweetzyme™) was loaded to a 250 mL square shaped bottles with screw cap. The bottles were placed in an orbital shaker and heated to 60° C.
The following conditions were applied for 4 bottles. The term conversion is defined as the fructose/glucose ratio.
Conversion vs. time is presented in FIG. 10 and the initial activity is calculated to be 389.
Conversion vs. time is presented in FIG. 11 and the initial activity is calculated to be 378.
Conversion vs. time is presented in FIG. 12 and the initial activity is calculated to be 364.

T1 sequence (P37031 whole entry): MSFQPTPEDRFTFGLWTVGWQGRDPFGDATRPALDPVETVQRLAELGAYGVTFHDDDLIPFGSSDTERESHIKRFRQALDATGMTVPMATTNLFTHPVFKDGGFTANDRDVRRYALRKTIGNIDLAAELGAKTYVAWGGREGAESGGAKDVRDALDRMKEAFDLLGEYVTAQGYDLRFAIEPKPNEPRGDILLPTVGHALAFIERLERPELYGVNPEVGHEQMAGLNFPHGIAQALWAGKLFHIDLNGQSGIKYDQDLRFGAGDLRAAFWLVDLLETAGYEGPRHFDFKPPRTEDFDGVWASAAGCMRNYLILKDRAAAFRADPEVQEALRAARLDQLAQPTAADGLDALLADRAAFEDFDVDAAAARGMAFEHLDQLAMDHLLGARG

Which results are given for O=Cc1ccc(CO)o1 [HMF, 5-(hydroxymethyl)-2-furaldehyde]?
Activity ([1]; time 94.25 h): 360.39 IGIU/g; Activity ([1]; time 116.25 h): 267.97 IGIU/g; Activity ([1]; time 139.50 h): 368.20 IGIU/g; Activity ([1]; time 162.75 h): 359.92 IGIU/g; Activity ([1]; time 237.25 h): 367.23 IGIU/g; Activity ([1]; time 259.17 h): 353.51 IGIU/g; Activity ([1]; time 283.67 h): 363.92 IGIU/g; Activity ([1]; time 311.08 h): 358.90 IGIU/g; decay rate compared to a column with normal syrup ([1]; after 9 days with substrate containing 0.1 w/w % HMF): not affected; initial activity ([2]; Bottle 2: 0.01 w/w % HMF in 45% glucose syrup): 389; initial activity ([2]; Bottle 3: 0.1 w/w % HMF in 45% glucose syrup): 378; initial activity ([2]; Bottle 4: 1 w/w % HMF in 45% glucose syrup): 364; Sweetzyme™ activity as a function of HMF concentration ([2]; FIG. 13, 0.01-1 w/w % HMF): not seriously affected
